Assay results published in patent US11723948B2, “Method for treating and prognosing cancer” (INSERM (INSTITUT NATIONAL DE LA SANTE ET DE LA RECHERCHE …, priority 2015, dated 2023).

Key:
PCTC #1 = assay: ELISA of global DNA methylation (5-methylcytosine); assay type: cell-based, human; details: PCTC #1 treated during 30 days
Excerpt: DNA was extracted by using the QiaAmp DNA mini Kit (Qiagen, France). Next, global DNA methylation was estimated by quantifying the presence of 5-methylcytosine using Methylamp Global DNA methylation Quantification kit (Euromedex-Epigentek, France) according to the manufacturers's instructions.
The analysis of all interactions being impossible, we postulated that if P1 inhibited a large number of DNMT3A/D3A-BP interactions, an hypomethylation phenotype would be observable. To observe the putative P1-induced DNA hypomethylation, PCTC #1 were treated during 30 days with P1 (data not shown). Other DNMT inhibitors (5-aza-2-deoxycytidine (5-aza), theaflavin 3,3 digallate (a DNMT3A inhibitor, hereafter called TFD), or peptides (UP peptide, a peptide inhibiting the DNMT1/PCNA/UHRF1 interactions)) were also used as control conditions.

MCF-7 cells = details: non-invasive breast cancer cell line MCF-7; cited from earlier work
ZR-75-1 = details: non-invasive breast cancer cell line ZR-75-1; cited from earlier work
[1] = test system: primary cultured tumor cells (PCTC) from GBM; assay: Collagen-based cell invasion assay; set-up: species or system human; details: 72 h incubation
Description: All of the procedures were followed according to the manufacturer's instructions (QCM 24-Well Collagen-Based Cell Invasion Assay, Millipore, France). In brief, 200 μl serum-free medium containing 2×10^5 cells were seeded into the invasion chamber and placed into the 24 well plate containing 500 μl complete medium. After 72 h incubation at 37° C., media was removed from the chamber, and cells were stained by putting the chamber in staining solution for 20 min at room temperature. Non-invaded cells were carefully removed from the top-side of the chamber. Stained chamber was inserted into a clean well containing 200 μl of extraction buffer for 15 min at room temperature. 100 μl extracted stained solution from the chamber was transferred into the 96 well plate and optical density was measured at 560 nm with a spectrophotometer.

[2] = test system: primary cultured tumor cells (PCTC) from GBM; assay: Migration assay, scratch test; assay type: cell-based, human; details: 24 hours, mitomycin C pre-treatment
Description: Cell migration assay was performed using a scratch technique. Cells were plated in 6-well plates at 80-90%, and were treated with 10 μg/ml mitomycin C (Sigma, France) for 2 hours (in order to remove the influence of cell proliferation). Cells were then scratched. Cell migration was monitored by microscopy. The images acquired for each sample were analyzed quantitatively. For each image, distances between one side of scratch and the other were measured. By comparing the images from time 0 to the last time point (24 hours), we obtain the distance of each scratch closure on the basis of the distances that are measured.
Impact of the P1-induced disruption of the DNMT3A/ISGF3γ interactions on migration capability was next estimated by performing a scratch test assay.

[3] = test system: primary cultured tumor cells (PCTC) from GBM; assay: Temozolomide+irradiation-induced cell death (trypan blue); assay type: cell-based, human; details: temozolomide 25 μM and irradiation 2 Gy
Description: Percentages of cell death were evaluated by using a Trypan Blue Stain 0.4%, and the Countess® Automated Cell Counter (Life Technologies, France). Cell death was induced using temozolomide (25 μM) and irradiation (2 Gy) such as previously described.
To evaluate the impact of the P1-induced disruption of the DNMT3A/ISGF3γ interactions on the sensitivity of apoptosis induced by a therapeutic treatment, we measured the percentage of temozolomide+irradiation-induced cell death since temozolomide (TMZ) and irradiation are conjugated in anti-GBM treatment [Cheray M et al., 2013 and Louis D et al., 2007]. […] Thus, we conclude that P1 acts as a sensitizer of the temozolomide+irradiation-induced cell death.

[4] = test system: primary cultured tumor cells (PCTC) from GBM; assay: Proliferation assay, doubling time; assay type: cell-based, human; details: counted every 24 h over 120 h
Description: Doubling time (i.e. the period of time required for a quantity to double in size) was calculated by using the Doubling Time Online Calculator website (Roth V. 2006, http://www.doubling-time.com/compute.php) and counting the proliferation of […] over 120 hours. Cell number was determined, every 24 h over 120 h, using the Countess® Automated Cell Counter (Life Technologies, France).
To estimate the impact of the P1-induced disruption of DNMT3A/ISGF3γ interactions on proliferation, we calculated the doubling time.

[5] = molecular target: T1, DNMT3A/ISGF3γ interaction (Homo sapiens, UniProt Q00978); assay: Competitive pull-down assay of the DNMT3A/ISGF3γ interaction; assay type: binding; details: for inhibition of the DNMT3A/ISGF3γ interaction: peptides pre-incubated 1 h at 37° C., FIG. 2A
T1 construct: GST
T1 sequence (Q00978 1-393): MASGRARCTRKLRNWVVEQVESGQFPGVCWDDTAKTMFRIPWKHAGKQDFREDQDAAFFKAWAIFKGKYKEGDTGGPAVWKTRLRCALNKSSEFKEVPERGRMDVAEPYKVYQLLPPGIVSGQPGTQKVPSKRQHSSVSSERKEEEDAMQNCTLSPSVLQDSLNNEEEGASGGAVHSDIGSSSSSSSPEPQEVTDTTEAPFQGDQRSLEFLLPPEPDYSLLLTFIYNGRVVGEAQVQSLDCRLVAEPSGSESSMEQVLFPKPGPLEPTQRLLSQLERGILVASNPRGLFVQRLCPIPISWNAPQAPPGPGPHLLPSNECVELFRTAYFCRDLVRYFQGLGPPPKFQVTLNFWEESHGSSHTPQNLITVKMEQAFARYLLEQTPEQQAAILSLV
Description: Pull-down assays were performed by using the GST/His Tagged-Protein Interaction Pull-Down Kits (Thermo Scientific, France). Briefly, 100 μg of bait protein were immobilized on column via an incubation at 4° C. for 1 h with gentle mixing. After washing, 1 μg of prey protein was added for 1 h at 4° C. with gentle rocking motion on a rotating platform. After washes and elution, the “bait-prey” interaction was analyzed by SDS-PAGE and Western blot methods. Competitive pull-down experimentations were realized by pre-incubating considered peptides for 1 h at 37° C.
In brief, proteins were size fractionated by sodium dodecyl sulfate-polyacrylamide gel electrophoresis. Proteins were transferred onto nitrocellulose or PVDF membrane. Saturation and blotting were realized by using SNAP I.™ Protein Detection System (Millipore, France). The detection of proteins was performed using ECL™ (Amersham Biosciences, France) and/or SuperSignal west femto Maximum Sensitivity (Thermo Scientific, France) chemilumenescence reagents. The detection of proteins was performed using the FusionX7 Imager (Fisher Scientific, France).

MGMT = assay: qMSP of MGMT methylation; assay type: cell-based, human; details: cells treated with peptide
Excerpt: In glioma, MGMT methylation is associated with a good responsive of anti-glioma treatment including TMZ and irradiation [Esteller M et al., 2000 and Hegi M et al., 2005].

[6] = molecular target: T2, DNMT3A/ISGF3γ interactions (Homo sapiens, UniProt Q00978); assay: Proximity Ligation In Situ Assay (P-LISA) in PCTC #1, DNMT3A/ISGF3γ; assay type: cell-based; details: PCTC #1, P-LISA 12 hr after electroporation of peptide
T2 construct: we used a PCTC (named PCTC #1); endogenous in cells; host or cells: PCTC #1 (primary cultured glioblastoma tumor cells)
T2 sequence (Q00978 1-393): T1 sequence (Q00978 1-393)
Description: Cells were cultured for 24 h on cover slip. Cells were then fixed with 4% paraformaldehyde in PBS pH7.4 for 15 min at room temperature. Permeabilization is performed with PBS containing 0.5% Triton X-100 for 20 min at room temperature. Blocking, staining, hybridization, ligation, amplification and detection steps were realized according to manufacturer's instructions (Olink Bioscience, Sweden). All incubations were performed in a humidity chamber. Amplification and detection steps were performed in dark room. Fluorescence was visualized by using the Axiovert 200M microscopy system (Zeiss, Le Pecq, France) with ApoTome module (X63 and numerial aperture 1.4). Preparations were mounted by using ProLong Gold antifade reagent with DAPI (Life Technologies, France). Pictures acquisition was realized in structured illumination microscopy. After decovolving (3.5 Huygens Essential software (SVI)), 3D view was obtained by using Amira.4.1.1 program. Finally, the images were analyzed by using the freeware “BlobFinder” available for download from www.cb.uu.se/˜amin/BlobFinder. Thus, we obtained either number of signals per nuclei since nuclei can be automatically identified.
(§1) For electroporation, NLS sequence was added to peptides. […] Electroporation efficiency for each cell line was initially determined by flow cytometry by uptake of the fluorescent dye, lucifer yellow (Sigma, France). […]

[7] = test system: PCTC-GBM glioma cells having high level of DNMT3A/ISGF3γ interactions; assay: Established subcutaneous glioma tumors in swiss nude mice; assay type: in vivo; details: treatment from tumor volume 100 mm^3, after 3 weeks of treatment; FIG. 3B
Description: A. Design of the experiment. […] Then, mice were treated with indicated treatment. D: day, w: week, it: intra-tumoral, ip: Intraperitoneal.
B. Graph illustrates the impact of the 4 considered treatments on tumor weight of established tumors. Open circles represent mice. Black circles represent the average±standard deviation obtained for each treatment. p values were obtained by performing a t test.
Cultured cells were harvested by trypsinization, washed and resuspended in saline buffer. Cell suspensions were injected s.c. as 2.106 cells in 0.05 ml of PBS with equal volume of matrigel matrix (Becton Dickinson, France) in the flank of 7/8-week-old Nude NMRI-nu female mice (Janvier, France). After tumor establishment, mice were treated with temozolomide and/or peptides via intra-tumor injection (it). To obtain tumor weigh, each tumor was surgically removed and is weighed. All experimental procedures using animals were realized in accordance with the guidelines of Institutional Animal Care and the French National Committee of Ethics.
Standard anti-GBM treatment using temozolomide as chemotherapeutic agent, we next investigated the effect of a treatment associating P1 peptide with TMZ in a swiss nude mice model of established tumors.

DNMT3A/AP2γ interaction = assay: P-LISA in PCTC #1, DNMT3A/AP2γ; assay type: cell-based, human
Description: (§2) Cells were cultured for 24 h on cover slip. Cells were then fixed with 4% paraformaldehyde in PBS pH7.4 for 15 min at room temperature. Permeabilization is performed with PBS containing 0.5% Triton X-100 for 20 min at room temperature. Blocking, staining, hybridization, ligation, amplification and detection steps were realized according to manufacturer's instructions (Olink Bioscience, Sweden). All incubations were performed in a humidity chamber. Amplification and detection steps were performed in dark room. Fluorescence was visualized by using the Axiovert 200M microscopy system (Zeiss, Le Pecq, France) with ApoTome module (X63 and numerial aperture 1.4). Preparations were mounted by using ProLong Gold antifade reagent with DAPI (Life Technologies, France). Pictures acquisition was realized in structured illumination microscopy. […] Finally, the images were analyzed by using the freeware “BlobFinder” available for download from www.cb.uu.se/˜amin/BlobFinder. […]
as §1
(§3) P1 was designed to inhibit the DNMT3A/ISGF3γ interactions. […] To investigate this point, we analyzed the effect of P1 on the DNMT3A/D3A-BP interactions of interest. […]

DNMT3A/GATA1 interaction = molecular target: T3, DNMT3A/GATA1 interaction (Homo sapiens, UniProt P15976); assay: P-LISA in PCTC #1, DNMT3A/GATA1; assay type: cell-based
T3 construct: endogenous in cells; host or cells: PCTC #1 (primary cultured glioblastoma tumor cells)
T3 sequence (P15976 whole entry): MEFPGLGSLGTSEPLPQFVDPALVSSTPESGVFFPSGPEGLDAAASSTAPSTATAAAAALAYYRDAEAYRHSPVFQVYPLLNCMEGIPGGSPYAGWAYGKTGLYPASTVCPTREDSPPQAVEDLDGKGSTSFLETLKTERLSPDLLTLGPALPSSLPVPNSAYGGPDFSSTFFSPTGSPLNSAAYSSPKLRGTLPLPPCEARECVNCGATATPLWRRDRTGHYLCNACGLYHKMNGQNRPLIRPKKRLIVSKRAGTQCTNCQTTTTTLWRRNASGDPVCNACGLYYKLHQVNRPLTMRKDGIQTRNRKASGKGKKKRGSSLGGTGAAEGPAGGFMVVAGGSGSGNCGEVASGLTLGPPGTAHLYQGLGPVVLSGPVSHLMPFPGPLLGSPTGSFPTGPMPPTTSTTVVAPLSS
Description: as §2, §1, §3

DNMT3A/HDAC1 interaction = molecular target: T4, DNMT3A/HDAC1 interaction (Homo sapiens, UniProt Q13547); assay: P-LISA in PCTC #1, DNMT3A/HDAC1; assay type: cell-based
T4 construct: endogenous in cells; host or cells: PCTC #1 (primary cultured glioblastoma tumor cells)
T4 sequence (Q13547 whole entry): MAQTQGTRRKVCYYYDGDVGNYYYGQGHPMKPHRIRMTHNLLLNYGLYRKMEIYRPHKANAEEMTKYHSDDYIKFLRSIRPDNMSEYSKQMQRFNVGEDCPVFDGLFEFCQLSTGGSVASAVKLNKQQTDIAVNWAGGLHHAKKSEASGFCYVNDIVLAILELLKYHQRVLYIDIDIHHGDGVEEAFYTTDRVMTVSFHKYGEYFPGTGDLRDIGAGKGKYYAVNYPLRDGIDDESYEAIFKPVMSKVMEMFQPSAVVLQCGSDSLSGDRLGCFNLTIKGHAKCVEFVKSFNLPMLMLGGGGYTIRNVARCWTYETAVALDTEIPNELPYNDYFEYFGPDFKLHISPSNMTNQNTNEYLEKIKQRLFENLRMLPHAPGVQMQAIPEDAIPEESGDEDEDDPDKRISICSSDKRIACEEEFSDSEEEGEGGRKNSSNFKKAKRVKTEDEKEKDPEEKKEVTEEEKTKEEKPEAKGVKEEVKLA
Description: as §2, §1, §3

| Compound | global level of 5-methylcytosine (PCTC #1) | invasiveness (MCF-7 cells) | invasiveness (ZR-75-1) | cell invasion [1] | cell migration [2] | percentage of temozolomide+irradiation-induced cell death [3] | doubling time of cells [4] | inhibition of the DNMT3A/ISGF3γ interaction [5] | DNMT3A/ISGF3γ interaction with increasing peptide concentration ([5]; increasing concentration of peptide, FIG. 2B) | methylation level of MGMT (MGMT) | red dots representing the DNMT3A/ISGF3γ interactions [6] | tumor growth (tumor weight/volume) of established tumors [7] | integrity of the DNMT3A/AP2γ interaction (DNMT3A/AP2γ interaction) | integrity of the DNMT3A/GATA1 interaction (DNMT3A/GATA1 interaction) | percentage of cell death compared with the other treatment ([3]; P1 versus TDF) | integrity of the DNMT3A/HDAC1 interaction (DNMT3A/HDAC1 interaction) |
| --- | --- | --- | --- | --- | --- | --- | --- | --- | --- | --- | --- | --- | --- | --- | --- | --- |
| Nc1ncn([C@H]2C[C@H](O)[C@@H](CO)O2)c(=O)n1 [5-aza, 5-aza-2-deoxycytidine] | decreased the global level of DNA methylation | increased the invasiveness | increased the invasiveness |  |  |  |  |  |  |  |  |  |  |  |  |  |
| O=C(O[C@@H]1Cc2c(O)cc(O)cc2O[C@@H]1c1cc(O)c(=O)c2c(O)c(O)cc([C@H]3Oc4cc(O)cc(O)c4C[C@H]3OC(=O)c3cc(O)c(O)c(O)c3)c2c1)c1cc(O)c(O)c(O)c1 [TFD, theaflavin 3,3 digallate, reference compound] | decreased the global level of DNA methylation |  |  | promoted the cell invasion | had no effect on cell migration | increased | no effect |  |  |  |  |  |  |  |  |  |
| RPMPRLTAQAGAPYYI (Synthetic P1mut) [P1^mut, mutated P1 peptide, reference compound] |  |  |  |  |  |  |  | does not inhibit the DNMT3A/ISGF3γ interaction |  |  |  |  |  |  |  |  |
| RPMPRLTFQAGDPYYI (Synthetic P1) | had not effect |  |  | unmodified the cell invasion characteristic | decreased cell migration | increased | no effect | inhibited the DNMT3A/ISGF3γ interaction | decreased | remains unchanged | decreased | no statistical difference | no effect | no effect | higher than the one obtained with TDF | no effect |
